Measured values from US20090098529A1 (priority 2006, published 2009).

Tested on: GI-101A tumors
Parameters: species or system nude mice
Conditions: mouse, in vivo

SMILES | Effect on tumor growth
N.N.[Cl][Pt][Cl] [Cisplatin, cis-diamminedichloroplatinum] | decreased the rate of tumor growth, but did not shrink tumors
COc1cccc2c1C(=O)c1c(O)c3c(c(O)c1C2=O)C[C@@](O)(C(=O)CO)C[C@@H]3O[C@H]1C[C@H](N)[C@H](O)[C@H](C)O1 [Doxorubicin, doxorubicin] | did not have any effect on the rate of tumor growth
